Data reported in US4550186A, “Binuclear copper (II) carboxylates formed from amine-carboxyboranes” (Duke University, priority 1983, dated 1985).

Assays:
Fatty Acid Synthetase = target: T1, Fatty Acid Synthetase (Mus musculus, UniProt P19096); test: In vitro liver enzyme study: fatty acid synthetase; type: biochemical; conditions: in vitro CF1 liver
T1 construct: 10% homogenates of CF1 male mouse liver; from tissue; host or cells: CF1 male mouse liver, 10% homogenate
Protocol: In vitro enzymatic studies were determined using 10% homogenates of CF1 male mouse liver with 50-200 μM of test drugs. In vivo enzymatic studies were determined using 10% homogenates of liver from CF1 male mice obtained after administering the agents for 16 days at a dose ranging from 2.5-20 mg/kg/day intraperitoneally. The liver homogenates for both in vitro and in vivo studies were prepared in 0.25M sucrose and 0.001M (ethylenedinitrilo)tetraacetic acid. Acetyl coenzyme A synthetase and adenosine triphosphate dependent citrate lyase activities were determined spectrophotometrically at 540 nm as the hydroxylamate of acetyl coenzyme A formed after 30 min at 37° C. Mitochondrial citrate exchange was determined by the procedure of Robinson et al [Eur. J. Biochem., 216, 63 (1970)] using ^14 C-sodium bicarbonate (41 mCi/mmol) incorporated into mitochondrial ^14 C-citrate after isolating rat mitochondria (9000 g×10 min) from the homogenates. The exchanges of the ^14 C-citrate were determined after incubating the mitochondrial fraction which was loaded with labeled citrate and test drugs for 10 min. Then the radioactivity was measured in the mitochondrial and supernantant fractions in scintillation fluid and expressed as a percentage. Cholesterol side chain oxidation was determined by the method of Kritchevsky and Tepper [Artherosclerosis, 18, 93 (1973)] using (26-^14 C) cholesterol (50 mCi/mmol) and mitochondria isolated from rat liver homogenates. […] Fatty acid synthetase activity was determined by the method of Brady et al [J. Biol. Chem., 235, 3093 (1960)] using [2-^14 C] malonyl-coenzyme A (37.5 mCi/mmol) which was incorporated into newly synthesized fatty acids that were extracted with ether and counted. Acyl transferase activity was determined with glycerol-3phosphate [L-2-^3 H(N)] […] HCl and counted. Phosphatidate phosphohydrolase activity was measured as the inorganic phosphate released after 30 min from phosphatidic acid by the method of Mavis et al [J. Lipid Res., 19, 467 (1978)]. […]

[1] = test system: Phosphatidate Phosphohydrolase; test: In vivo liver enzyme study: phosphatidate phosphohydrolase; parameters: species or system mouse; conditions: for Phosphatidate Phosphohydrolase: CF1 liver after 16 days i.p.
Protocol: In vitro enzymatic studies were determined using 10% homogenates of CF1 male mouse liver with 50-200 μM of test drugs. In vivo enzymatic studies were determined using 10% homogenates of liver from CF1 male mice obtained after administering the agents for 16 days at a dose ranging from 2.5-20 mg/kg/day intraperitoneally. The liver homogenates for both in vitro and in vivo studies were prepared in 0.25M sucrose and 0.001M (ethylenedinitrilo)tetraacetic acid. Acetyl coenzyme A synthetase and adenosine triphosphate dependent citrate lyase activities were determined spectrophotometrically at 540 nm as the hydroxylamate of acetyl coenzyme A formed after 30 min at 37° C. Mitochondrial citrate exchange was determined by the procedure of Robinson et al [Eur. J. Biochem., 216, 63 (1970)] using ^14 C-sodium bicarbonate (41 mCi/mmol) incorporated into mitochondrial ^14 C-citrate after isolating rat mitochondria (9000 g×10 min) from the homogenates. The exchanges of the ^14 C-citrate were determined after incubating the mitochondrial fraction which was loaded with labeled citrate and test drugs for 10 min. Then the radioactivity was measured in the mitochondrial and supernantant fractions in scintillation fluid and expressed as a percentage. Cholesterol side chain oxidation was determined by the method of Kritchevsky and Tepper [Artherosclerosis, 18, 93 (1973)] using (26-^14 C) cholesterol (50 mCi/mmol) and mitochondria isolated from rat liver homogenates. After 18 hr incubation at 37° C. with test drugs, the generated ^14 CO2 was trapped in the center well in {2-(2-(p-1,1,3,3,-tetramethylbutylcresoxy)ethoxy]ethyl } dimethylbenzylammonium hydroxide and counted. 3-Hydroxy-3-methylglutaryl coenzyme A reductase (HMG coenzyme A reductase) activity was measured using 1-^14 C-acetate (56 mCi/mmol) and a post-mitochondrial supernatant (9000 g×20 min) incubated for 60 min at 37° C. [Wada et al, J. Biochem. (Tokyo), 65 71 (1969)]. The digitonide derivative of cholesterol was isolated and counted. Acetyl coenzyme A carboxylase activity was measured by the method of Greenspan and Lowenstein [J. Biol. Chem., 243, 6273 (1968)]. […] Fatty acid synthetase activity was determined by the method of Brady et al [J. Biol. Chem., 235, 3093 (1960)] using [2-^14 C] malonyl-coenzyme A (37.5 mCi/mmol) which was incorporated into newly synthesized fatty acids that were extracted with ether and counted. Acyl transferase activity was determined with glycerol-3phosphate [L-2-^3 H(N)] […] HCl and counted. Phosphatidate phosphohydrolase activity was measured as the inorganic phosphate released after 30 min from phosphatidic acid by the method of Mavis et al [J. Lipid Res., 19, 467 (1978)]. The released inorganic phosphate after development with ascorbic acid and ammonium molybdate was determined at 820 nm. […]

thymidylate synthetase = thymidylate synthetase (Mus musculus, UniProt P07607); test: In vitro thymidylate synthetase activity; type: biochemical; conditions: 0.25 to 1.0 mM
Sequence of thymidylate synthetase (P07607 whole entry): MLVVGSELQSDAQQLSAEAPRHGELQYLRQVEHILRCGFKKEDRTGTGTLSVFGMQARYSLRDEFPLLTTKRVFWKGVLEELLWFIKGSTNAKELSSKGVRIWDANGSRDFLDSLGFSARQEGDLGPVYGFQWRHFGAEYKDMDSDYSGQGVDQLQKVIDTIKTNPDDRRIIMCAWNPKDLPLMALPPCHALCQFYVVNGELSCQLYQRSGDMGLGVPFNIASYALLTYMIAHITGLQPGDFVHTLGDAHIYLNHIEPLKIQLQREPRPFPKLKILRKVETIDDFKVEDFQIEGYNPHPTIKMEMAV
Protocol: CF1 male mice (~30 g) were implanted with 2×10^6 Ehrlich ascites tumor cells, intraperitoneally on Day 0. Compound I was suspended by homogenation in 0.05% polysorbate.80-water and administered intraperitoneally at 10 and 20 mg/kg for 9 days to determine its effectiveness for inhibition of tumor growth. Mice were sacrificed on Day 10, and the ascites fluid was collected from the peritoneal cavity. The volume and ascrit (packed cell volume) were determined for each animal and the percent inhibition of tumor growth was calculated. For the metabolic studies, mice were treated on Days 8 and 9 with 10 mg/kg of Compound I, intraperitoneally. […]
Carbamyl phosphate synthetase activity was determined using the reaction medium of Kalman et al [Am. […] Citrulline formed from ornithine was measured at 490 nm by the method of Archibald [J. Biol. Chem., 156, 121 (1944)]. […] The ^14 CO2 generated in 15 min was trapped in 1M KOH and counted. Thymidylate synthetase activity was determined using a post-mitochondrial supernatant (9000 g×10 min) and 5 μCi of 5-^3 H-deoxyuridine monophosphate (14 Ci/mmol) according to the method of Kampf et al [ J. Med. Chem., 19, 903 (1976)]. ^14 C-Formate incorporation into purines was determined by the method of Spassova et al [Biochem. Pharmacol., 25, 923 (1976)] using 0.5 μCi of ^14 C-formic acid (52.0 mCi/mmol). […] The Rf value for xanthine monophosphate was scraped and counted. […]

T1 sequence (P19096 whole entry): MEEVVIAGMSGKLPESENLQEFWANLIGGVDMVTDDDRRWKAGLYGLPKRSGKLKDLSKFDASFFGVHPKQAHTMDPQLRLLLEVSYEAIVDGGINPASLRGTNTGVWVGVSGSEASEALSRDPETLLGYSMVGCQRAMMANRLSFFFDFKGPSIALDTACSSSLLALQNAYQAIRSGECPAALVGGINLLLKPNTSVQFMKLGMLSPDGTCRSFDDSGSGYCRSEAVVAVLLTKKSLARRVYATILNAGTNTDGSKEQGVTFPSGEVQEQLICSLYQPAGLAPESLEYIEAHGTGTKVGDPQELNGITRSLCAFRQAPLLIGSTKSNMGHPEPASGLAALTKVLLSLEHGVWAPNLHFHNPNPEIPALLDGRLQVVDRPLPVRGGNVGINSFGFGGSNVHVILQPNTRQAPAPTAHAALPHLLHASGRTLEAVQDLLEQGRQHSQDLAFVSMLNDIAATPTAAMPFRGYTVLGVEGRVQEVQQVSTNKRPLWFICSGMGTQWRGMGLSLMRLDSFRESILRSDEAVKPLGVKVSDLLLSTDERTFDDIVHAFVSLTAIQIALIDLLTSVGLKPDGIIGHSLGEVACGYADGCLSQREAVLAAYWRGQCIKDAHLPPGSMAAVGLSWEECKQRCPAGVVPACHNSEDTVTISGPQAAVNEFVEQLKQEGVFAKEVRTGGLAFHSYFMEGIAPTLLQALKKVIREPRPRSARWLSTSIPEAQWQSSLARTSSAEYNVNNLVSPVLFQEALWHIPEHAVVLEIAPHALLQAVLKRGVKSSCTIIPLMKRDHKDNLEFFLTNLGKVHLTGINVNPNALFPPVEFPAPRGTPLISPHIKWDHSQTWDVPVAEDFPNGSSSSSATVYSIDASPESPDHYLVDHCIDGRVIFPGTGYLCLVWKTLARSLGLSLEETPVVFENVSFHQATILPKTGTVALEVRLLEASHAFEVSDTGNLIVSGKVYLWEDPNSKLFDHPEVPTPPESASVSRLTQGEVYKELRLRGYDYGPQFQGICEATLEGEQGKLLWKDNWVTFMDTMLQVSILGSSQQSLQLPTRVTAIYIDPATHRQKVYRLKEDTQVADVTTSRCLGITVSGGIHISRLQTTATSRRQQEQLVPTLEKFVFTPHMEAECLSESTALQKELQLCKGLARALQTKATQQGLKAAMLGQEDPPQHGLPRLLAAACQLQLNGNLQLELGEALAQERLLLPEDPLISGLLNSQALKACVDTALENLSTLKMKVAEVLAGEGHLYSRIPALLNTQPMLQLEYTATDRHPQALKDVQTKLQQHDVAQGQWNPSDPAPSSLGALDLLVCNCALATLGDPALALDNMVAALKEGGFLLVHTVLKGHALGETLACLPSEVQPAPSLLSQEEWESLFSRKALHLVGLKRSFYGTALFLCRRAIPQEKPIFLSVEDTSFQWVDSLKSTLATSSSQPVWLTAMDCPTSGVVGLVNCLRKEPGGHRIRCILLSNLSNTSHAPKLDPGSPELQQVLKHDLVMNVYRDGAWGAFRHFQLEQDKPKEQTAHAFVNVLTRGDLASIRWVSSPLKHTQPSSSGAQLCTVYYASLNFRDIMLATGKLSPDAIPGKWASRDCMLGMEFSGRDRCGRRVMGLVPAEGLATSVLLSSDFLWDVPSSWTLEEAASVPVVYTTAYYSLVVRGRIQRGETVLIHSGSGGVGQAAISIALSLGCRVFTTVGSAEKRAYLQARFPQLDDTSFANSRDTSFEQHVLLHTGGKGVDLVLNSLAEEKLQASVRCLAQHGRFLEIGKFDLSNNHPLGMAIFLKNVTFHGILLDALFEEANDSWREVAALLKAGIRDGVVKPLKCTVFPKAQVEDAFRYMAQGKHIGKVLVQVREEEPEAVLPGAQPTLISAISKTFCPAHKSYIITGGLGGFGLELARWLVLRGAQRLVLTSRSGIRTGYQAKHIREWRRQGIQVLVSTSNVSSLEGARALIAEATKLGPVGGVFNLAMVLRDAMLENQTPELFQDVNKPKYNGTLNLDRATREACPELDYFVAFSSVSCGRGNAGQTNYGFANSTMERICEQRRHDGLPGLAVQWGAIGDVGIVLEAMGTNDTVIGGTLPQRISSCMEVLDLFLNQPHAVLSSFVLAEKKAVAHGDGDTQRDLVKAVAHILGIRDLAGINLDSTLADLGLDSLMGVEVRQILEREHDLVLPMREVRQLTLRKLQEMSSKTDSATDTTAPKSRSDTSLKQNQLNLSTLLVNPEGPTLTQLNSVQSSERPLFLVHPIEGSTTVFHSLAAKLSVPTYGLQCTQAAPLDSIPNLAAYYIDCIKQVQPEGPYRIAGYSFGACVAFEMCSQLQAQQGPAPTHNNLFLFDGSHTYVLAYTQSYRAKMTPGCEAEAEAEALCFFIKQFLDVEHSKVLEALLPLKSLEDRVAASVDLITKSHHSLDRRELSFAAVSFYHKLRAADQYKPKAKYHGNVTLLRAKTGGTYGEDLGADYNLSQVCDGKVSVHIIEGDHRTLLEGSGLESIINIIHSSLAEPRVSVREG

{Cu[(CH3)3 N.BH2 CO2 ]2.(CH3)3 N.BH2 COOH} [Compound I]
Fatty Acid Synthetase (Fatty Acid Synthetase; 50 μM): 86 ± 7 Percent Control
Fatty Acid Synthetase (Fatty Acid Synthetase; 100 μM): 96 ± 8 Percent Control
Fatty Acid Synthetase (Fatty Acid Synthetase; 200 μM): 87 ± 7 Percent Control
Phosphatidate Phosphohydrolase ([1]; 2.5 mg/kg): 55 ± 5% of control
Phosphatidate Phosphohydrolase ([1]; 5.0 mg/kg): 53 ± 5% of control
Phosphatidate Phosphohydrolase ([1]; 10 mg/kg): 18% of control
Phosphatidate Phosphohydrolase activity reduction ([1]; in vivo, mice 16 days, 10 mg/kg/day): 82%
thymidylate synthetase inhibition (thymidylate synthetase): not inhibited
